Laboratory results as given in article PMC12396409, “Screening and hit evaluation of a microbial metabolite library against the pathogenic Plasmodium falciparum and Toxoplasma gondii parasites” (International Journal for Parasitology: Drugs and Drug …, 2025).
Like-named read-outs stand apart in the source and are kept apart here.

Legend:
[1] = system: P. falciparum 3D7 parasites; assay: P. falciparum growth inhibition assay, 1-cycle (72 h treatment), SYBR DNA staining (library screen at 2 μg/mL and dose-response); format: cell-based, Plasmodium falciparum; conditions: for Pf_72h_%Growth_Rep1 / Pf_72h_%Growth_Rep2 / activity at 2 µg/mL: % growth; for activity at 2 µg/mL: Plasmodium falciparum
[2] = system: T. gondii RH strain (RH-Tub-eYFP) tachyzoites; assay: microbe, parasite or virus in culture; format: cell-based, Toxoplasma gondii; conditions: 72 h; for Tg_72h_%Growth_Rep1 / Tg_72h_%Growth_Rep2 / percent parasite growth at 2 µg/mL: % growth; for percent parasite growth at 2 µg/mL: Toxoplasma gondii
[3] = system: P. falciparum 3D7 parasites; assay: P. falciparum growth inhibition assay, 2-cycle (120 h treatment), delayed-death screen and dose-response; format: cell-based, Plasmodium falciparum; conditions: % growth; for activity at 2 µg/mL: Plasmodium falciparum
[4] = P. falciparum 3D7, 72 h, library screen at 2 μg/mL, replicate 1
[5] = P. falciparum 3D7, 72 h, library screen at 2 μg/mL, replicate 2
[6] = T. gondii RH, library screen at 2 μg/mL, replicate 1
[7] = T. gondii RH, library screen at 2 μg/mL, replicate 2
[8] = P. falciparum 3D7, 120 h, library screen at 2 μg/mL, replicate 1
[9] = P. falciparum 3D7, 120 h, library screen at 2 μg/mL, replicate 2
[10] = 3D7, 72 h, P. falciparum, 72 h, parasite screen 2 μg/mL, replicate 1, read-out: Pf_72h_%Growth_Rep1
[11] = 3D7, 72 h, P. falciparum, 72 h, parasite screen 2 μg/mL, replicate 2, read-out: Pf_72h_%Growth_Rep2
[12] = T. gondii, parasite screen 2 μg/mL, replicate 1, read-out: Tg_72h_%Growth_Rep1
[13] = T. gondii, parasite screen 2 μg/mL, replicate 2, read-out: Tg_72h_%Growth_Rep2
[14] = 3D7, 120 h, P. falciparum, 120 h, parasite screen 2 μg/mL, replicate 1, read-out: Pf_120h_%Growth_Rep1
[15] = 3D7, 120 h, P. falciparum, 120 h, parasite screen 2 μg/mL, replicate 2, read-out: Pf_120h_%Growth_Rep2
[16] = library screen at 2 μg/mL, 72 h, replicate 1
[17] = library screen at 2 μg/mL, 72 h, replicate 2
[18] = library screen at 2 μg/mL, replicate 1
[19] = library screen at 2 μg/mL, replicate 2
[20] = library screen at 2 μg/mL, 120 h, replicate 1
[21] = library screen at 2 μg/mL, 120 h, replicate 2

CCCC(O)C(O)C1CC(OC)=CC(=O)O1 (centres unmarked) [BIA-H1068]
Pf_72h_%Growth_Rep1 [1, 4]: 88.88% | Pf_72h_%Growth_Rep2 [1, 5]: 77.83% | Tg_72h_%Growth_Rep1 [2, 6]: 107.81% | Tg_72h_%Growth_Rep2 [2, 7]: 92.55% | Pf_120h_%Growth_Rep1 [3, 8]: 95.79% | Pf_120h_%Growth_Rep2 [3, 9]: 147.07%

CO[C@H]1[C@@H](OC)C[C@H](C)[C@@H](OC)c2cc(O)cc(c2O)NC(=O)/C(C)=C/C=C\[C@H](OC)[C@@H](OC(N)=O)/C(C)=C/[C@@H]1C [TAN 420E]
Pf_72h_%Growth_Rep1 ([1]; P. falciparum, 72 h, parasite screen 2 μg/mL, replicate 1): 3.51% | Pf_72h_%Growth_Rep2 ([1]; P. falciparum, 72 h, parasite screen 2 μg/mL, replicate 2): -0.34% | Tg_72h_%Growth_Rep1 ([2]; T. gondii, parasite screen 2 μg/mL, replicate 1): 60.21% | Tg_72h_%Growth_Rep2 ([2]; T. gondii, parasite screen 2 μg/mL, replicate 2): 64.79% | Pf_120h_%Growth_Rep1 ([3]; P. falciparum, 120 h, parasite screen 2 μg/mL, replicate 1): 36.47% | Pf_120h_%Growth_Rep2 ([3]; P. falciparum, 120 h, parasite screen 2 μg/mL, replicate 2): 7.03%

CN[C@@H]1C[C@H]2O[C@@](C)([C@@H]1OC)n1c3ccccc3c3c4c(c5c6ccccc6n2c5c31)C(=O)NC4 [staurosporine, reference compound]
activity in the screen against P. falciparum ([1]; 2 μg/mL, 72 h, active = ≥80 % growth inhibition): active in our screens | activity at 2 µg/mL [1, 10]: 9.8% | activity at 2 µg/mL [1, 11]: -0.94% | activity in the screen against T. gondii ([2]; 2 μg/mL, active = ≥80 % growth inhibition): active in our screens | percent parasite growth at 2 µg/mL [2, 12]: 1.08% | percent parasite growth at 2 µg/mL [2, 13]: -0.18% | activity at 2 µg/mL [3, 14]: 10.8% | activity at 2 µg/mL [3, 15]: 1.05%

COc1ccc2c(c1OC)C(=O)OC2C1c2cc3c(cc2CCN1C)OCO3 (centres unmarked) [BIA-H1954]
Pf_72h_%Growth_Rep1 [1, 4]: 81.78% | Pf_72h_%Growth_Rep2 [1, 5]: 87.48% | Tg_72h_%Growth_Rep1 [2, 6]: 92.88% | Tg_72h_%Growth_Rep2 [2, 7]: 95.07% | Pf_120h_%Growth_Rep1 [3, 8]: 145.49% | Pf_120h_%Growth_Rep2 [3, 9]: 80.33%

CC[C@H](C)[C@H]1O[C@]2(C=C[C@@H]1C)C[C@@H]1C[C@@H](C/C=C(\C)[C@@H](O[C@H]3C[C@H](OC)[C@@H](O[C@H]4C[C@H](OC)[C@H](O)[C@H](C)O4)[C@H](C)O3)[C@@H](C)C=C/C=C3\CO[C@@H]4[C@H](O)C(C)C=C(C(=O)O1)[C@]34O)O2 (some centres unmarked) [Avermectin B1a, delta2-]
Pf_72h_%Growth_Rep1 [1, 16]: 4.74% | Pf_72h_%Growth_Rep2 [1, 17]: 5.45% | Tg_72h_%Growth_Rep1 [2, 18]: 29.57% | Tg_72h_%Growth_Rep2 [2, 19]: 35.45% | Pf_120h_%Growth_Rep1 [3, 20]: 4.88% | Pf_120h_%Growth_Rep2 [3, 21]: -9.99%

O=c1c(-c2ccc(O)cc2)coc2cc(O)cc(O)c12 [Genistein]
activity at 2 µg/mL ([1]; 3D7, library screen at 2 μg/mL, 72 h, replicate 1, read-out: Pf_72h_%Growth_Rep1): 88.5% | activity at 2 µg/mL ([1]; 3D7, library screen at 2 μg/mL, 72 h, replicate 2, read-out: Pf_72h_%Growth_Rep2): 42.1% | percent parasite growth at 2 µg/mL ([2]; library screen at 2 μg/mL, replicate 1, read-out: Tg_72h_%Growth_Rep1): 80.3% | percent parasite growth at 2 µg/mL ([2]; library screen at 2 μg/mL, replicate 2, read-out: Tg_72h_%Growth_Rep2): 72.4% | activity at 2 µg/mL ([3]; 3D7, library screen at 2 μg/mL, 120 h, replicate 1, read-out: Pf_120h_%Growth_Rep1): 89.5% | activity at 2 µg/mL ([3]; 3D7, library screen at 2 μg/mL, 120 h, replicate 2, read-out: Pf_120h_%Growth_Rep2): 111%

CC(=O)OC[C@]12[C@H](O)C(=O)C(C)=C[C@H]1O[C@@H]1[C@H](O)C[C@@]2(C)[C@]12CO2 [Acetyldeoxynivalenol, 15-]
Pf_72h_%Growth_Rep1 [1, 16]: 5.76% | Pf_72h_%Growth_Rep2 [1, 17]: -0.64% | Tg_72h_%Growth_Rep1 [2, 18]: -2.45% | Tg_72h_%Growth_Rep2 [2, 19]: -0.58% | Pf_120h_%Growth_Rep1 [3, 20]: 6.22% | Pf_120h_%Growth_Rep2 [3, 21]: 4.98%

COc1ccc(C[C@H](N)C(=O)N[C@H]2[C@@H](O)[C@H](n3cnc4c(N(C)C)ncnc43)O[C@@H]2CO)cc1 [Puromycin]
activity at 2 µg/mL ([1]; 3D7, P. falciparum, 72 h, parasite screen 2 μg/mL, replicate 1, read-out: Pf_72h_%Growth_Rep1): 1.82% | activity at 2 µg/mL ([1]; 3D7, P. falciparum, 72 h, parasite screen 2 μg/mL, replicate 2, read-out: Pf_72h_%Growth_Rep2): 1.65% | percent parasite growth at 2 µg/mL [2, 12]: -0.59% | percent parasite growth at 2 µg/mL [2, 13]: 1.12% | activity at 2 µg/mL ([3]; 3D7, P. falciparum, 120 h, parasite screen 2 μg/mL, replicate 1, read-out: Pf_120h_%Growth_Rep1): -0.01% | activity at 2 µg/mL ([3]; 3D7, P. falciparum, 120 h, parasite screen 2 μg/mL, replicate 2, read-out: Pf_120h_%Growth_Rep2): 7.14%

CCCCCCCCCC(=O)N[C@H]1[C@H](Oc2c3cc4cc2Oc2ccc(cc2Cl)[C@@H](O[C@@H]2O[C@H](CO)[C@@H](O)[C@H](O)[C@H]2NC(C)=O)[C@@H]2NC(=O)[C@H](NC(=O)[C@@H]4NC(=O)[C@H]4NC(=O)[C@H](Cc5ccc(c(Cl)c5)O3)NC(=O)[C@H](N)c3ccc(O)c(c3)Oc3cc(O)cc4c3)c3ccc(O)c(c3)-c3c(O[C@H]4O[C@H](CO)[C@@H](O)[C@H](O)[C@@H]4O)cc(O)cc3[C@@H](C(=O)O)NC2=O)O[C@H](CO)[C@@H](O)[C@@H]1O [Teicoplanin A2-3]
activity at 2 µg/mL [1, 10]: 88.9% | activity at 2 µg/mL [1, 11]: 128% | percent parasite growth at 2 µg/mL [2, 12]: 112% | percent parasite growth at 2 µg/mL [2, 13]: 84.1% | activity at 2 µg/mL [3, 14]: 110% | activity at 2 µg/mL [3, 15]: 97%
